Data: ChEMBL document CHEMBL1125072, “Synthesis and biochemical evaluation of tritium-labeled 1-methyl-N-(8-methyl-8-azabicyclo[3.2.1]oct-3-yl)-1H-indazole-3-carboxa mide, a useful radioligand for 5HT3 receptors” (J Med Chem, 1990)

What was measured:
[1] = biological target: T1, Serotonin 3 (5-HT3) receptor (Rattus norvegicus, UniProt P35563+Q9JJ16); assay: pKi value for inhibition of [3H]LY-278584 binding to 5-hydroxytryptamine 3 receptor; format: protein-complex assay
T1 sequence (P35563 whole entry): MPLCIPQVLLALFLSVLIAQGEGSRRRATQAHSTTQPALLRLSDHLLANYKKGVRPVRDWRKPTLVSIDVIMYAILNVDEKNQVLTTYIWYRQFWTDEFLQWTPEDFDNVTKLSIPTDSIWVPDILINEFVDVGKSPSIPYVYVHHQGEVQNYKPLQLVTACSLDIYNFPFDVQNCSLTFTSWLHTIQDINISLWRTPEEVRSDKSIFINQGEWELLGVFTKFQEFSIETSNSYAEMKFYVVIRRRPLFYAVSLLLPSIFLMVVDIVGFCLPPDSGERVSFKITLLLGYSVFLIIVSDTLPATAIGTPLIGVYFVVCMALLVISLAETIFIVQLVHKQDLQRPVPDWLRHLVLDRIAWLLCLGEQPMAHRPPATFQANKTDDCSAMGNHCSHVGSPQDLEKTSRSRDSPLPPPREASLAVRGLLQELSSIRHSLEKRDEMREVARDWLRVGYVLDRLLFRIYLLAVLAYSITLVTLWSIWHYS
T1 sequence (Q9JJ16 whole entry): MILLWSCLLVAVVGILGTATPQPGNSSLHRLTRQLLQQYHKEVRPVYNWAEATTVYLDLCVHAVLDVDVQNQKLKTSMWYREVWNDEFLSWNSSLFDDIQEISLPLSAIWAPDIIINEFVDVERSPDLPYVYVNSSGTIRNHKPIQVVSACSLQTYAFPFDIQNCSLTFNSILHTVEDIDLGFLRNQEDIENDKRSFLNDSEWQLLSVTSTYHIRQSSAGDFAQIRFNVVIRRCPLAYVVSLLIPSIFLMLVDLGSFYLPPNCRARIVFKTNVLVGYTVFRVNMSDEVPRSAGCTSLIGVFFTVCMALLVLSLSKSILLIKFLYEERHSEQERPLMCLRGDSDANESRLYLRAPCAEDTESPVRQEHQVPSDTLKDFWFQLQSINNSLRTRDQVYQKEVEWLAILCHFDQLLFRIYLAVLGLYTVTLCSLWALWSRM

[2] = biological target: T1, Serotonin 3 (5-HT3) receptor; assay: Inhibitory activity against 5-hydroxytryptamine 3 receptor in rat cortical membranes using [3H]- 1-Methyl-1H-indazole-3-carboxylic acid (8-methyl-8-aza-bicyclo[3.2.1]oct-3-yl)-amide as a radioligand; format: cell membranes
[3] = biological target: T2, 5-hydroxytryptamine receptor 1A (Rattus norvegicus, UniProt P19327); assay: Inhibitory activity against 5-hydroxytryptamine 1A receptor in rat cortical membranes using [3H]8-OH-DPAT as a radioligand; format: cell membranes
T2 sequence (P19327 whole entry): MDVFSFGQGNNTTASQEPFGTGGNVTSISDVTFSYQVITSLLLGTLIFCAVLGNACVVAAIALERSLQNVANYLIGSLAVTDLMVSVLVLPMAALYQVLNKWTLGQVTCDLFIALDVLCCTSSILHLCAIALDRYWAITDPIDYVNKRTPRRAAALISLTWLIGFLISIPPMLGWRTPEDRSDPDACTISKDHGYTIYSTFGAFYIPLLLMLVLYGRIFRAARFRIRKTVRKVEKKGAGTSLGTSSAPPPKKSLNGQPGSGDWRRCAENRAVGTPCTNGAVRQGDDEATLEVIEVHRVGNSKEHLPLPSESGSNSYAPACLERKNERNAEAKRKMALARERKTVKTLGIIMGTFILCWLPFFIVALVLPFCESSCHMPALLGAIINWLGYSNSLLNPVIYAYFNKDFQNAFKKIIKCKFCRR

[4] = biological target: 5-hydroxytryptamine receptor 1B (Rattus norvegicus, UniProt P28564); assay: Inhibitory activity against 5-hydroxytryptamine 1B receptor in rat cortical membranes using [3H]5-HT as a radioligand; format: cell membranes
5-hydroxytryptamine receptor 1B, sequence (P28564 whole entry): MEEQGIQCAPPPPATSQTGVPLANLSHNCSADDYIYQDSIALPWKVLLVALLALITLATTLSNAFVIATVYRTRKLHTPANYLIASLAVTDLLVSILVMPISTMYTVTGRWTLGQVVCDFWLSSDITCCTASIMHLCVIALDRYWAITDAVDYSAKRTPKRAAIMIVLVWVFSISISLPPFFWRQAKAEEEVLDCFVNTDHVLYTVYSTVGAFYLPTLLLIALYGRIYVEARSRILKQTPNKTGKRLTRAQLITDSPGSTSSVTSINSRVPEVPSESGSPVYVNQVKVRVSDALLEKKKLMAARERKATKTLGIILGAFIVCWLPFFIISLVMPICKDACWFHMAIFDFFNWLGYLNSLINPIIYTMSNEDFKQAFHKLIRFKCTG

[5] = tested on: Rattus norvegicus; assay: Effective dose required to reduce von benzold jarisch reflex response to 5-HT was determined; Value ranges from 10-30 ug/Kg; format: functional
[6] = tested on: Rattus norvegicus; assay: Percentage inhibition 5-HT- mediated bradycardia in rat after 3 ug/Kg of compound administered intravenously; format: functional

Row | Ki [3] [nM] | Ki [4] [nM] | Compound | Ki [1] [nM] | Ki [2] [nM] | ED50 [5] [mg/kg] | Inhibition [6] [%]
1 |  |  | CN1C2CCC1CC(NC(=O)c1n[nH]c3ccccc13)C2 (stereo not drawn) | 4.27 | 4.26 |  | 
2 |  |  | CN1C2CCC1CC(NC(=O)c1c3ccccc3nn1C)C2 (stereo not drawn) | 1050 | 1050 |  | 
3 |  |  | CN1[C@@H]2CC[C@H]1C[C@@H](OC(=O)c1cc(Cl)cc(Cl)c1)C2 [BEMESETRON] | 25.7 | 26 |  | 
4 | > 1000 | > 1000 | CN1C2CCCC1CC(NC(=O)c1nn(C)c3ccccc13)C2 (stereo not drawn) [GRANISETRON] |  |  | 0.01 | 
5 |  |  | CCN(CC)CCNC(=O)c1cc(Cl)c(N)cc1OC [METOCLOPRAMIDE] | 501 | 502 |  | 
6 |  |  | c1ccc2nc(N3CCNCC3)ccc2c1 [QUIPAZINE] | 3.02 | 3.04 |  | 
7 |  |  | CN1[C@@H]2CC[C@H]1C[C@@H](OC(=O)c1c[nH]c3ccccc13)C2 [TROPISETRON] | 1.29 | 1.28 |  | 66
8 |  |  | COc1cc(N)c(Cl)cc1C(=O)NC1CN2CCC1CC2 (stereo not drawn) [ZACOPRIDE] | 0.417 | 0.42 |  | 
